# Patent US11912742B2, “Heterologous production of leupeptin protease inhibitors and analogs thereof” (YALE UNIVERSITY, priority 2020, dated 2024)
# Where a SMILES comes first, the peptide text is derived from it.
# Columns and labels:
# [1] = tested on: calpain protease; conditions: cited from earlier work
# [2] = Spontaneous conversion of pro-pyrazinones under aerobic conditions; format: physicochemical
# [3] = tested on: chymotrypsin-type proteases; conditions: previously synthesized molecules; cited from earlier work
# [4] = tested on: Plu4509; assay: In vitro enzyme assay of purified Plu4509 with leupeptin as substrate; format: biochemical, P. luminescens; conditions: His6x-tagged Plu4509; end point analysis; 1 h, 35° C.
# [5] = tested on: trypsin-like proteases; conditions: cited from earlier work
# [6] = cited from earlier work
SMILES,stability under aerobic conditions (conversion to pyrazinone) [2],inhibition of chymotrypsin-type proteases [3],further results
CC(C)Cc1ncc(Cc2ccc(O)cc2)[nH]c1=O [lumizinone A],–,–,calpain protease inhibition [1]: calpain protease inhibitor
CC(C)C[C@@H]1N[C@@H]2N=C(N)N3CCC[C@@]23NC1=O [compound 9],spontaneously converted to their pyrazinone counterpart 11,–,–
CC(=O)N[C@@H](CC(C)C)C(=O)N[C@@H](CC(C)C)C(=O)N[C@H](C=O)Cc1ccc(O)cc1 [leupeptin B] (Ac-Leu-Leu-Tyr-aldehyde),–,confirmed to inhibit chymotrypsin-type proteases,–
CC(=O)NC(CC(C)C)C(=O)NC(CC(C)C)C(=O)NC(C=O)Cc1ccccc1 (stereo not drawn) [leupeptin C] (Ac-Leu-Leu-Phe-aldehyde; configuration not given here),–,confirmed to inhibit chymotrypsin-type proteases,–
CC(C)C[C@@H]1N[C@@H]2N=C(N)N3CCC[C@]23NC1=O [compound 10],spontaneously converted to their pyrazinone counterpart 11,–,–
"CC(=O)N[C@@H](CC(C)C)C(=O)N[C@@H](CC(C)C)C(=O)N[C@H](C=O)CCCNC(=N)N [leupeptin A, N-Acetyl-L-leucyl-L-leucyl-L-argininal]",–,–,cleavage by Plu4509: production of metabolites 10 and 11 from the substrate [4]: significantly enhanced production of 10 and 11; inhibition of trypsin-like proteases [5]: inhibits trypsin-like proteases; toxicity in humans [6]: very low toxicity
